Test results: PubChem BioAssay (NCI)
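GI50: concentration for 50% inhibition of growth. TGI marks complete inhibition of growth.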

Legend:
Experiment in all cases: NCI tumour cell line growth inhibition, 384-well format
[1] = test system: OVCAR-4 ovarian
[2] = test system: A498 renal
[3] = test system: 786-0 renal
[4] = test system: K-562 leukemia
[5] = test system: HT29 colon
[6] = test system: MDA-MB-231 breast
[7] = test system: HOP-62 NSCLC
[8] = test system: SK-MEL-28 melanoma
[9] = test system: MOLT-4 leukemia
[10] = test system: HCC-2998 colon
[11] = test system: SN12C renal
[12] = test system: NCI-H226 lung
[13] = test system: HCT-116 colon
[14] = test system: NCI-H522 lung
[15] = test system: SK-MEL-2 melanoma
[16] = test system: OVCAR-5 ovarian
[17] = test system: IGROV1 ovarian
[18] = test system: LOX IMVI melanoma
[19] = test system: SR leukemia
[20] = test system: SF-539 CNS
[21] = test system: HS 578T breast
[22] = test system: HOP-92 NSCLC
[23] = test system: MDA-MB-468 breast
[24] = test system: KM12 colon
[25] = test system: ACHN renal
[26] = test system: U251 glioblastoma
[27] = test system: SK-MEL-5 melanoma
[28] = test system: UACC-257 melanoma
[29] = test system: HL-60(TB) leukemia
[30] = test system: TK-10 renal
[31] = test system: MDA-MB-435 melanoma
[32] = test system: HCT-15 colon
[33] = test system: RPMI-8226 leukemia
[34] = test system: COLO 205 colon
[35] = test system: BT-549 breast
[36] = test system: PC-3 prostate
[37] = test system: SF-268 CNS
[38] = test system: UO-31 renal
[39] = test system: NCI-H460 NSCLC
[40] = test system: CCRF-CEM leukemia
[41] = test system: SNB-19 CNS
[42] = test system: SNB-75 CNS
[43] = test system: CAKI-1 renal
[44] = test system: UACC-62 melanoma
[45] = test system: NCI/ADR-RES ovarian
[46] = test system: MALME-3M melanoma
[47] = test system: DU-145 prostate
[48] = test system: M14 melanoma
[49] = test system: T-47D breast
[50] = test system: OVCAR-3 ovarian
[51] = test system: NCI-H23 lung
[52] = test system: SW-620 colon
[53] = test system: EKVX NSCLC
[54] = test system: SK-OV-3 ovarian
[55] = test system: SF-295 CNS
[56] = test system: A549 NSCLC
[57] = test system: MCF7 breast
[58] = test system: RXF 393 renal
[59] = test system: NCI-H322M lung

CCCCc1nc2cc(/C=C/C(=O)NO)ccc2n1CCN(CC)CC
GI50 [1]: 392 nM
TGI [1]: 1950 nM
GI50 [2]: 298 nM
TGI [2]: 1070 nM
GI50 [3]: 317 nM
TGI [3]: 2000 nM
GI50 [4]: 17.5 nM
TGI [4]: 205 nM
GI50 [5]: 203 nM
TGI [5]: 809 nM
GI50 [6]: 187 nM
TGI [6]: 613 nM
GI50 [7]: 250 nM
TGI [7]: 1640 nM
GI50 [8]: 179 nM
TGI [8]: 465 nM
GI50 [9]: 30.9 nM
TGI [9]: 197 nM
GI50 [10]: 106 nM
TGI [10]: 414 nM
GI50 [11]: 286 nM
TGI [11]: 1290 nM
GI50 [12]: 697 nM
TGI [12]: 2100 nM
GI50 [13]: 125 nM
TGI [13]: 377 nM
GI50 [14]: 34.3 nM
TGI [14]: 247 nM
GI50 [15]: 169 nM
TGI [15]: 339 nM
GI50 [16]: 119 nM
TGI [16]: 484 nM
GI50 [17]: 119 nM
TGI [17]: 539 nM
GI50 [18]: 203 nM
TGI [18]: 588 nM
GI50 [19]: < 10 nM
TGI [19]: 107 nM
GI50 [20]: 415 nM
TGI [20]: 2480 nM
GI50 [21]: 125 nM
TGI [21]: 317 nM
GI50 [22]: 176 nM
TGI [22]: 518 nM
GI50 [23]: 134 nM
TGI [23]: 356 nM
GI50 [24]: 280 nM
TGI [24]: 1420 nM
GI50 [25]: 221 nM
TGI [25]: 955 nM
GI50 [26]: 174 nM
TGI [26]: 503 nM
GI50 [27]: 129 nM
TGI [27]: 290 nM
GI50 [28]: 178 nM
TGI [28]: 561 nM
GI50 [29]: 144 nM
TGI [29]: 280 nM
GI50 [30]: 258 nM
TGI [30]: 948 nM
GI50 [31]: 226 nM
TGI [31]: 616 nM
GI50 [32]: 483 nM
TGI [32]: 2110 nM
GI50 [33]: < 10 nM
TGI [33]: 17 nM
GI50 [34]: 178 nM
TGI [34]: 419 nM
GI50 [35]: 230 nM
TGI [35]: 1160 nM
GI50 [36]: 185 nM
TGI [36]: 689 nM
GI50 [37]: 174 nM
TGI [37]: 602 nM
GI50 [38]: 82.9 nM
TGI [38]: 1520 nM
GI50 [39]: 235 nM
TGI [39]: 1320 nM
GI50 [40]: 62.3 nM
TGI [40]: 206 nM
GI50 [41]: 511 nM
TGI [41]: 1980 nM
GI50 [42]: 119 nM
TGI [42]: 1630 nM
GI50 [43]: 206 nM
TGI [43]: 709 nM
GI50 [44]: 83.4 nM
TGI [44]: 235 nM
GI50 [45]: 489 nM
TGI [45]: 2330 nM
GI50 [46]: 130 nM
TGI [46]: 402 nM
GI50 [47]: 120 nM
TGI [47]: 375 nM
GI50 [48]: 358 nM
TGI [48]: 1710 nM
GI50 [49]: 136 nM
TGI [49]: 310 nM
GI50 [50]: 181 nM
TGI [50]: 974 nM
GI50 [51]: 296 nM
TGI [51]: 1440 nM
GI50 [52]: 166 nM
TGI [52]: 334 nM
GI50 [53]: 649 nM
TGI [53]: 4320 nM
GI50 [54]: 239 nM
TGI [54]: 911 nM
GI50 [55]: 186 nM
TGI [55]: 397 nM
GI50 [56]: 321 nM
TGI [56]: 1270 nM
GI50 [57]: 185 nM
TGI [57]: 1130 nM
GI50 [58]: < 10 nM
TGI [58]: 237 nM
GI50 [59]: 206 nM
TGI [59]: 1140 nM
